Our source for the IC50 values is patent US10828305B2 (SHANGHAI PHARMACEUTICALS HOLDING CO., LTD., priority 2016, dated 2020).

One assay addresses ErbB2 kinase (Homo sapiens, UniProt P04626). The experiment in a line: Enzymatic experiment on ErbB2 (HTRF kinEASE-TK). It is filed as biochemical. As to conditions: ATP 4 μM; read-out: Kinase IC50 (nM) in vitro ErbB2. The method, boiled down: (§1)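 HTRF kinEASE-TK with biotinylated TK substrate in HEPES pH 7.0 buffer containing MnCl2, MgCl2 and DTT; ErbB2 at 0.06 ng/μl with 4 μM ATP, EGFR at 0.06 units/μl with 1.65 μM ATP, 30 min at room temperature after 5 min enzyme/substrate–compound preincubation. Ten-point 3-fold dilutions; Eu antibody/SA-XL665 detection, 665/620 ratio.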
For orientation: TR-FRET usually uses a lanthanide donor and a delayed reading to cut background.

The target in the next assay is EGFR kinase (Homo sapiens, UniProt P00533). Nature of the assay: Enzymatic experiment on EGFR (HTRF kinEASE-TK). As to conditions: ATP 1.65 μM; read-out: Kinase IC50 (nM) in vitro EGFR. It is filed as biochemical. The method, boiled down:
as §1

In the next assay the test system is N87. The experiment in a line: Proliferation inhibition assay in vitro, N87 (CellTiter-Glo). It is filed as cell-based. The settings on record: Homo sapiens; 72 hours; read-out: IC50(nM) cell N87. The method, boiled down: (§2)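 Cells were seeded at 8.8×10^4 cells/mL for BT-474 or 6.6×10^4 cells/mL for N87 and grown overnight. Compound was added at 9 concentrations in duplicate for 72 h at 37 °C, 5% CO2. Viability was measured by CellTiter-Glo.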
(In general: Cellular ATP, detected with luciferase, serves as a proxy for viable cell number.)

In a further assay the test system is BT-474. Nature of the assay: Proliferation inhibition assay in vitro, BT-474 (CellTiter-Glo). The settings on record: Homo sapiens, 72 hours, read-out: IC50(nM) cell BT-474. In kind it is cell-based. The method, boiled down: as §2

Broadly, the IC50 is the concentration needed to halve the response being measured.

EGFR kinase, sequence (P00533 25-1210): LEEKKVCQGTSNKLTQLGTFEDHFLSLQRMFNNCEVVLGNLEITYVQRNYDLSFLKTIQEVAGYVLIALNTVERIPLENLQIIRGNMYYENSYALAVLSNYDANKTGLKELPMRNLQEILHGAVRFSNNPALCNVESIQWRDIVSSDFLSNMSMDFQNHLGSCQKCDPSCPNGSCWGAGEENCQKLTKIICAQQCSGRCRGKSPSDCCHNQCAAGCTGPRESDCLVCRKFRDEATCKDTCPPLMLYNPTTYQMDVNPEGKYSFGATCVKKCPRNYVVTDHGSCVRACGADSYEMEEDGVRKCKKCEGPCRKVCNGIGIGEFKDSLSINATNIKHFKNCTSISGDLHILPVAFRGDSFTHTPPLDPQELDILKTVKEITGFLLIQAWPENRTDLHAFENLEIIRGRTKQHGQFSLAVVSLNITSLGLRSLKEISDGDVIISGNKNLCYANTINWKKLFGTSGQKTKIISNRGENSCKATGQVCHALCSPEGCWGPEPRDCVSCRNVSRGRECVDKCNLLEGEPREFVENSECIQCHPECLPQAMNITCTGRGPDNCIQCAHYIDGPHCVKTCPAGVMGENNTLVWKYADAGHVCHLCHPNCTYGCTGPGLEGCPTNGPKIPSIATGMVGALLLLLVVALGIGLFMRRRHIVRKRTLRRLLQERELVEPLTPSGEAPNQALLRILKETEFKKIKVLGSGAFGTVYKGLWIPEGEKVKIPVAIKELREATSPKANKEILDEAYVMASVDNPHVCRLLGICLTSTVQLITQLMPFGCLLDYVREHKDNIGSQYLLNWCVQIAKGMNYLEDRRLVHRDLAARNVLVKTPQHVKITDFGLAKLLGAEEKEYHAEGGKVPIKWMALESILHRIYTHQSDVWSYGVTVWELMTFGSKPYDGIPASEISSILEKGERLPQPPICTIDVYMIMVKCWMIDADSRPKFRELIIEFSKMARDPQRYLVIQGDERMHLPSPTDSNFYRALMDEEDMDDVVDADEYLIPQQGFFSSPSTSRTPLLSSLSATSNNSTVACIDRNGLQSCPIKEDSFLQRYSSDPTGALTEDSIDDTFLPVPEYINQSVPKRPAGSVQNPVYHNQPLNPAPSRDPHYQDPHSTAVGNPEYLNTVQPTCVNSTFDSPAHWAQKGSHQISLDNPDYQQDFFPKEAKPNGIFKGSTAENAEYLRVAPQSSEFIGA
ErbB2 kinase, sequence (P04626 23-1255): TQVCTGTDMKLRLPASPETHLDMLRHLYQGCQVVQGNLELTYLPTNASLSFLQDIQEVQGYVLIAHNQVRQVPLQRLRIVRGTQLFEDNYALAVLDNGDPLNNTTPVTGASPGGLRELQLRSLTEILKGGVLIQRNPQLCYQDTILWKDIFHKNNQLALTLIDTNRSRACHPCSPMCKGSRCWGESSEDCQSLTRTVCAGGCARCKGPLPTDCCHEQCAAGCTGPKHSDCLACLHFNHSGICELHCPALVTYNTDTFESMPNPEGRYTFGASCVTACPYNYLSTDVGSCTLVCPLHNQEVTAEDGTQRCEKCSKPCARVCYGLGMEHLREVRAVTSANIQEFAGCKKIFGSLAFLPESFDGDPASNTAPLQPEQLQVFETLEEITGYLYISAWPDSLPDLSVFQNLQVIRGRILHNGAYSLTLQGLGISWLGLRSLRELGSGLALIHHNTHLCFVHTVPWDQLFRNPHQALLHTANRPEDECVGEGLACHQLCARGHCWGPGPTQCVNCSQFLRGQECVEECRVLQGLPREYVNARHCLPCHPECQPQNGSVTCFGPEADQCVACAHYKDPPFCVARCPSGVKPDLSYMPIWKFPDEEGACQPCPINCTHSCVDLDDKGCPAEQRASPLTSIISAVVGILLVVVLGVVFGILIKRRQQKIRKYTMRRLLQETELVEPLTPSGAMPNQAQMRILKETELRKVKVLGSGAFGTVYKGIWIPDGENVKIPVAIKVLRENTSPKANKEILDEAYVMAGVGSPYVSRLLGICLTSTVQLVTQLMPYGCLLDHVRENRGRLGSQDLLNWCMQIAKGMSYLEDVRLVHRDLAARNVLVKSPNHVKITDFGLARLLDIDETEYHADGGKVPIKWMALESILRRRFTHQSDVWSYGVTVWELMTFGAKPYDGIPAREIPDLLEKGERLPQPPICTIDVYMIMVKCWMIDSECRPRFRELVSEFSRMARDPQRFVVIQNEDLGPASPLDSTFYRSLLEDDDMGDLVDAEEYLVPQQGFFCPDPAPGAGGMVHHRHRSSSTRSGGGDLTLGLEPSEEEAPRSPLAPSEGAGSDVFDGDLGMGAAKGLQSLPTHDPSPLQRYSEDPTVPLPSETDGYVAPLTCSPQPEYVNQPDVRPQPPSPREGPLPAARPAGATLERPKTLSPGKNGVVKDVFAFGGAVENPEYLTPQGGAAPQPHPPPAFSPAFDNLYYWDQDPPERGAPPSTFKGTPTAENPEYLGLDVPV

Turning to `Cc1cc(Nc2ncnc3ccc(NC4=NC(C)(C)CO4)cc23)ccc1Oc1cc2nncn2cn1` [Embodiment 4, N^4-(4-([1,2,4]triazolo[4,3-c]pyrimidin-7-yloxy)-3-methylphenyl)-N^6-(4,4-dimethyl-4,5-dihydrooxazol-2-yl)quinazoline-4,6-diamine], the half-inhibitory concentration (IC50) on ErbB2 kinase worked out at 2.4 nM; at EGFR kinase, 44.3 nM; with N87, 23 nM; in the assay with BT-474, 19.7 nM.
